Measurements taken from patent US9770462B2, “Method of treating ovarian, tubal and peritoneal cancer” (NATIONAL CHENG KUNG UNIVERSITY, priority 2015, dated 2017).

How the values were obtained:
[1] = test system: cDDP^R cell lines (2008-cp, A172-cp and SR2) and cDDP^S cell lines (2008, A172 and SCLC); test: Sensitization to platinum drugs in the absence or presence of copper chelator; format: cell-based, human; details: copper chelator treated cDDP^R cells with enhanced hCtr1 expression
Method: Furthermore, ^64Cu uptake and platinum (Pt) uptake, and sensitization to cisplatin and carboplatin in three pairs of cDDP^R cell lines (2008-cp, A172-cp and SR2) and cDDP^S cell lines (2008, A172 and SCLC) in the absence or presence of copper chelator (5 μmol/L of TM, 100 μmol/L of trientine or 100 μmol/L of D-pen) were evaluated.

ovarian cancer cells = test: Cisplatin cytotoxicity (IC50) in the presence or absence of copper histidine; format: cell-based; details: copper ions 3000 μM, 24 hours
Method: The cytotoxicity of shControl cells (shControl), IMP3 knockdown cells (shIMP3-268, shIMP3-596) and Lin28B knockdown cells (shLin28B-860, shLin28B-508) in response to cisplatin was determined using the WST-1 (TaKaRa) assay. In brief, 3×10^4 ovarian cancer cells/well were grown in 96-well plates overnight and treated with cisplatin at various concentrations in the presence or absence of copper ions (3000 μM) (Copper Histidine) for 24 hours. After incubation, the […] was used to determine the IC50 of cisplatin. Dose-inhibition curves and the IC50 of cisplatin were calculated for the different cell types using commercial software (SigmaPlot V10.0, Systat Software, Inc., Richmond, Calif., USA). A copper histidine solution was prepared. In brief, copper(II) chloride (0.106 g; Sigma-Aldrich) and L-histidine (0.244 g; Sigma-Aldrich) were dissolved in 90 ml of sterile 0.9% sodium chloride, titrated to a pH of […] to 7.40, and then filtered through a 0.22-μm filter before use.

| SMILES | sensitivity of cells to the platinum drug [1] | IC50 of cisplatin when combined with copper histidine (ovarian cancer cells; IMP3- or Lin28B-knockdown cells, p<0.05) | IC50 of cisplatin when combined with copper histidine (ovarian cancer cells; shControl cells) |
| --- | --- | --- | --- |
| N.N.O=C([O-])C1(C(=O)[O-])CCC1.[Pt+2] [carboplatin] | increased sensitivity |  |  |
| N.N.[Cl][Pt][Cl] [cisplatin] | higher increases |  |  |
| N[C@@H](Cc1c[nH]cn1)C(=O)O.[Cu] [copper histidine] |  | increased | no significant (NS) effect |
| O=C1[O][Pt]2([NH][C@@H]3CCCC[C@H]3[NH]2)[O]C1=O [oxaliplatin] | not |  |  |
